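In this assay, cells in 96-well plates receive the compound at five concentrations for 48 hours. Endpoints are linearly interpolated between the surrounding concentrations. GI50 marks 50% less growth. At the TGI there is no net growth.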
Columns and labels:
Test in all cases: NCI tumour cell line growth inhibition, 48 h
[1] = system: CCRF-CEM leukemia
[2] = system: OVCAR-5 ovarian
[3] = system: HCT-15 colon
[4] = system: SK-OV-3 ovarian
[5] = system: HCT-116 colon
[6] = system: MCF7 breast
[7] = system: UACC-62 melanoma
[8] = system: MDA-MB-435
[9] = system: A498 renal
[10] = system: HT29 colon
[11] = system: HCC-2998 colon
[12] = system: UO-31 renal
[13] = system: CAKI-1 renal
[14] = system: PC-3 prostate
[15] = system: SNB-75 CNS
[16] = system: OVCAR-3 ovarian
[17] = system: RXF 393 renal
[18] = system: SK-MEL-28 melanoma
[19] = system: OVCAR-8 ovarian
[20] = system: NCI-H23 lung
[21] = system: SNB-19 CNS
[22] = system: SK-MEL-5 melanoma
[23] = system: NCI/ADR-RES ovarian
[24] = system: IGROV1 ovarian
[25] = system: OVCAR-4 ovarian
[26] = system: DU-145 prostate
[27] = system: SF-295 CNS
[28] = system: SK-MEL-2 melanoma
[29] = system: NCI-H522 lung
[30] = system: BT-549 breast
[31] = system: KM12 colon
[32] = system: SF-539 CNS
[33] = system: NCI-H226 lung
[34] = system: HOP-92 NSCLC
[35] = system: 786-0 renal
[36] = system: MDA-MB-231 breast
[37] = system: TK-10 renal
[38] = system: U251 CNS
[39] = system: NCI-H460 lung
[40] = system: RPMI-8226 leukemia
[41] = system: A549 NSCLC
[42] = system: HL-60(TB) leukemia
[43] = system: MALME-3M melanoma
[44] = system: K-562 leukemia
[45] = system: ACHN renal
[46] = system: SN12C renal
[47] = system: HOP-62 NSCLC
[48] = system: HS 578T breast
[49] = system: SW-620 colon
[50] = system: EKVX NSCLC
[51] = system: SF-268 CNS
[52] = system: M14 melanoma
[53] = system: UACC-257 melanoma

`COc1ccc2[nH]cc(-c3nc(-c4c[nH]c5ccncc45)cs3)c2c1` showed a GI50 [1] of 2450 nM, a TGI [1] of 7.18 µM and a GI50 [2] of 2370 nM. The TGI [2] was 4.74 µM, the GI50 [3] was 1950 nM and the TGI [3] was 4.29 µM. It also gave a GI50 [4] of 13.7 µM, a TGI [4] of 26.6 µM and a GI50 [5] of 1770 nM. It also gave a TGI [5] of 3.33 µM, a GI50 [6] of 1660 nM and a TGI [6] of 3.4 µM. The GI50 [7] was 1780 nM, the TGI [7] was 3.35 µM and the GI50 [8] was 1680 nM. It also gave a TGI [8] of 3.13 µM, a GI50 [9] of 4.91 µM and a TGI [9] of 16.1 µM. The GI50 [10] was 2230 nM, the TGI [10] was 4.87 µM and the GI50 [11] was 1870 nM. For the same compound, the TGI [11] was 3.32 µM, the GI50 [12] was 1750 nM and the TGI [12] was 3.46 µM. The GI50 [13] was 2860 nM, the TGI [13] was 9.13 µM and the GI50 [14] was 2130 nM. The TGI [14] was 5.23 µM, the GI50 [15] was 6.96 µM and the TGI [15] was 20.1 µM. It also gave a GI50 [16] of 2180 nM, a TGI [16] of 4.07 µM and a GI50 [17] of 1740 nM. The TGI [17] was 3.33 µM, the GI50 [18] was 1940 nM and the TGI [18] was 3.44 µM. It also gave a GI50 [19] of 2370 nM, a TGI [19] of 6.05 µM and a GI50 [20] of 1760 nM. It also gave a TGI [20] of 3.85 µM, a GI50 [21] of 1970 nM and a TGI [21] of 3.8 µM. For the same compound, the GI50 [22] was 1650 nM, the TGI [22] was 3.05 µM and the GI50 [23] was 2480 nM. It also gave a TGI [23] of 6.84 µM, a GI50 [24] of 1930 nM and a TGI [24] of 3.9 µM. For the same compound, the GI50 [25] was 2940 nM, the TGI [25] was 8.85 µM and the GI50 [26] was 2730 nM. It also gave a TGI [26] of 8.57 µM, a GI50 [27] of 1700 nM and a TGI [27] of 3.19 µM. The GI50 [28] was 2050 nM, the TGI [28] was 3.91 µM and the GI50 [29] was 1810 nM. The TGI [29] was 3.65 µM, the GI50 [30] was 8.96 µM and the TGI [30] was 21.3 µM. It also gave a GI50 [31] of 1760 nM, a TGI [31] of 3.75 µM and a GI50 [32] of 1640 nM. It also gave a TGI [32] of 3.09 µM, a GI50 [33] of 2360 nM and a TGI [33] of 6.58 µM. It also gave a GI50 [34] of 1790 nM, a TGI [34] of 3.75 µM and a GI50 [35] of 1840 nM. For the same compound, the TGI [35] was 3.41 µM, the GI50 [36] was 1650 nM and the TGI [36] was 3.25 µM. The GI50 [37] was 2590 nM, the TGI [37] was 4.64 µM and the GI50 [38] was 1910 nM. For the same compound, the TGI [38] was 3.67 µM, the GI50 [39] was 1840 nM and the TGI [39] was 3.73 µM. For the same compound, the GI50 [40] was 2080 nM, the TGI [40] was 4.76 µM and the GI50 [41] was 2350 nM. For the same compound, the TGI [41] was 9.5 µM, the GI50 [42] was 1510 nM and the TGI [42] was 3.47 µM. For the same compound, the GI50 [43] was 2000 nM, the TGI [43] was 3.58 µM and the GI50 [44] was 1720 nM. It also gave a TGI [44] of 4.7 µM, a GI50 [45] of 1660 nM and a TGI [45] of 3.14 µM. For the same compound, the GI50 [46] was 1830 nM, the TGI [46] was 3.61 µM and the GI50 [47] was 2080 nM. For the same compound, the TGI [47] was 4.77 µM, the GI50 [48] was 2150 nM and the TGI [48] was 4.95 µM. It also gave a GI50 [49] of 1930 nM, a TGI [49] of 3.84 µM and a GI50 [50] of 1990 nM. For the same compound, the TGI [50] was 4.88 µM, the GI50 [51] was 2610 nM and the TGI [51] was 6.97 µM. For the same compound, the GI50 [52] was 1830 nM, the TGI [52] was 3.62 µM and the GI50 [53] was 1930 nM. It also gave a TGI [53] of 3.51 µM.
